{"source": "patent US4256832A", "about": "“Carcinogen and mutagen screening method and apparatus” (BioResearch Inc., priority 1978, dated 1981)", "key": {"S. typhimurium TA 1535": {"tested_on": "S. typhimurium TA 1535", "assay": "Oxygen uptake of S. typhimurium TA 1535 cultures in minimal histidine medium, oxygen electrode (mutagen screening)", "type": "cell-based, Salmonella typhimurium", "conditions": "flasks 3 and 4", "text": "In the device illustrated in FIG. 1, two conventional oxygen electrodes, 10, 11, of the Clark type are employed. […] Electrode 11, designated the test electrode, measures the respiration rate (O2 uptake) of the same fixed volume 13 and concentration of Ames test bacteria and media as the control electrode. In the second case, the media also contains the chemical to be evaluated. If the chemical is a carcinogen or mutagen, the O2 uptake of test electrode 11 will increase at a faster rate than that of the control. This occurs because the reversion rate, and thus the growth rate and O2 consumption rate will be higher in the test electrode 11 than in the control electrode 10. Conversely, if the chemical is not a carcinogen or a mutagen, the O2 uptake rates will be similar. Thus, by measuring the difference in O2 uptake rates between a control and a test electrode, the potential carcinogenicity and/or mutagenicity of a chemical can be evaluated. […]\nThe test organism, S. typhimurium TA 1535 is grown overnight, washed three times in phosphate buffer and resuspended to give OD of 0.8 (>10^8 per ml). […] At zero, four, and 32 hours, 1 ml of culture is added to 2 ml of aerated minimal glucose media in the test chamber of an oxygen electrode and the rate of oxygen uptake is measured."}, "S. typhimurium TA 1530": {"tested_on": "S. typhimurium TA 1530", "conditions": "cited from earlier work"}, "Saccharomyces cerevsiae": {"tested_on": "Saccharomyces cerevsiae", "conditions": "cited from earlier work"}, "[1]": {"tested_on": "oxidative phosphorylation", "conditions": "cited from earlier work; for uncoupling: higher concentrations than 10^-9 M; for stimulation of respiration and ATP production: low concentrations (10^-9 M)"}}}
{"smiles": "Nc1c2ccccc2nc2ccccc12", "note": "[9-amine acridine]", "values": [{"measurement": "oxygen uptake, dependence on mutagen level", "setting": "S. typhimurium TA 1535", "result": "dependent upon the level of the added known mutagen"}]}
{"smiles": "O=C(O)[C@@H]1CCN1", "note": "[L-azetidine carboxylic acid]", "values": [{"measurement": "toxicity to mutant form", "setting": "S. typhimurium TA 1530; mutant form of S. typhimurium TA 1530", "result": "not toxic to its mutant form"}, {"measurement": "toxicity to normal form", "setting": "S. typhimurium TA 1530; normal form of S. typhimurium TA 1530", "result": "toxic to the normal form"}]}
{"smiles": "NC(N)=NOCC[C@H](N)C(=O)O.O=S(=O)(O)O", "note": "[cavanine sulfate]", "values": [{"measurement": "toxicity to mutant form", "setting": "Saccharomyces cerevsiae; mutant form of yeast", "result": "not to its mutant form"}, {"measurement": "toxicity to normal form", "setting": "Saccharomyces cerevsiae; normal form of yeast", "result": "toxic to the normal form"}]}
{"smiles": "N[C@@H](Cc1cc(I)c(Oc2cc(I)c(O)c(I)c2)c(I)c1)C(=O)O", "note": "[thyroxine]", "values": [{"measurement": "uncoupling", "setting": "[1]", "result": "uncouple at higher concentrations"}, {"measurement": "stimulation of respiration and ATP production", "setting": "[1]", "result": "stimulate respiration and ATP production"}]}
{"smiles": "N[C@@H](Cc1cc(I)c(Oc2ccc(O)c(I)c2)c(I)c1)C(=O)O", "note": "[triiodothyronine]", "values": [{"measurement": "uncoupling", "setting": "[1]", "result": "uncouple at higher concentrations"}, {"measurement": "stimulation of respiration and ATP production", "setting": "[1]", "result": "stimulate respiration and ATP production"}]}
